Source: patent US20240239849A1, “PEPTIDE ENTITIES WITH ANTIMICROBIAL ACTIVITY AGAINST MULTI-DRUG RESISTANT PATHOGENS” (CENTRO DE INVESTIGACIÓN Y DESARROLLO DE MEDICAMENTOS. CIDEM, priority 2020, published 2024)

Legend:
[1] = system: K. pneumoniae (multi-resistant clinical isolate); test: checkerboard test, Meropenem/peptide combinations; assay type: cell-based, Klebsiella pneumoniae; details: meropenem alone, denominator of FICA
Procedure: (§1) Only strains from clinical isolates of Gram-negative bacteria Klebsiella pneumoniae and Gram-positive Staphylococcus aureus multiresistant to antibiotics were chosen to carry out the combination tests between the peptides. The experiments were carried out according to the methodology of the test described as “checkerboard” or checkerboard [Huang, R.-y., et al., Isobologram Analysis: A Comprehensive Review of Methodology and Current Research. Frontiers in Pharmacology, 2019. 10: p. 1222] This test allows the determination of the fractional inhibitory concentration index (FICI) following Equation 3, which establishes the classification of the effects obtained as follows: synergy (FICI≤0.5), additive (0.5<FICI≤ 1), indifferent (1<FICI≤2) and antagonism (FICI>2).
(§2) Where: MICA: minimum inhibitory concentration of compound A; MICB: minimum inhibitory concentration of compound B; MICAB: minimum concentration of A that combined with B inhibits growth; MICBA: minimum concentration of B that combined with A inhibits growth. The checkerboard experiment was performed in sterile 96-well polypropylene plates (Eppendorf, Germany). Isolated colonies of each bacterium were used to create 1×10^5 CFU bacterial cultures in PBS, referred to as a working culture. In addition, 64 μM stock solutions of the peptides were prepared in PBS. Two-fold dilutions in PBS of each peptide were made in 50 μL final volume. […]

[2] = system: S. aureus (multi-resistant clinical isolate); test: checkerboard test, Meropenem/peptide combinations; assay type: cell-based, Staphylococcus aureus; details: meropenem alone, denominator of FICA
Procedure: as §1, §2

- MICA (minimum inhibitory concentration of compound A) [1]: 8.0 µg/mL
- MICA (minimum inhibitory concentration of compound A) [2]: 8.0 µg/mL
Structure (SMILES): C[C@@H](O)[C@H]1C(=O)N2C(C(=O)O)=C(S[C@@H]3CN[C@H](C(=O)N(C)C)C3)[C@H](C)[C@H]12 [MER, Meropenem, reference compound]
